What was measured:
Muscle tissue = experiment: Biodistribution in ddY mouse muscle at 4.8 MBq/0.1 mL after 60 mins by gamma counting; format: ADME, organism-based; conditions: in vivo, 1 h
Liver = experiment: Biodistribution in ddY mouse liver at 4.8 MBq/0.1 mL after 60 mins by gamma counting; format: ADME, organism-based; conditions: in vivo, 1 h
Mus musculus = species: Mus musculus; experiment: Biodistribution in ddY mouse large intestine at 4.8 MBq/0.1 mL after 1 min by gamma counting; format: ADME, organism-based; conditions: in vivo
[1] = Drug uptake in monkey pons assessed as distribution volume ratio at 185 to 220 MBq, iv after 10 to 90 mins by PET analysis; format: ADME, organism-based, Macaca mulatta; conditions: rhesus monkey, in vivo
[2] = Drug uptake in monkey cingulate cortex assessed as distribution volume ratio at 185 to 220 MBq, iv after 10 to 90 mins by PET analysis; format: ADME, organism-based, Macaca mulatta; conditions: rhesus monkey, in vivo

Drug uptake (Muscle tissue): 0.07 % ID/g | Drug uptake (Liver): 0.51 % ID/g | Drug uptake (Mus musculus): 1.28 % ID/g | Ratio [1]: 1 | Ratio [2]: 2.6
Compound: CC(C)Nc1cc(-c2csc(N(C)C(=O)c3ccc([14CH3])cc3)n2)ncn1
